The results in this text go back to paper PMC7156458, “Synthetic biology based construction of biological activity-related library of fungal decalin-containing diterpenoid pyrones” (Nature Communications, 2020).

A word on the GI50: it is the concentration at which growth is held to half of that of the control. High values mean less potent growth inhibition, low ones more potent growth inhibition.

For one experiment, the system named is NCI-H23. Description: cells. The following applies: for GI50: Homo sapiens, NCI-H23, 48 h. Set-up: species or system JFCR39 human cancer cell lines; JFCR39 panel growth inhibition, sulforhodamine B total protein after 48 h. The method, then: (§1) Supplementary Note 24. Antiproliferative effects across the panel of JFCR39 cancer cell lines A panel of 39 human cancer cell lines, termed JFCR39, were previously described13-16. Cells were grown in RPMI-1640 (FUJIFILM Wako Pure Chemical Corporation, Tokyo, Japan) supplemented with 1 µg mL-1 kanamycin and 5% (v/v) fetal bovine serum (Nichirei Biosciences Inc, Tokyo, Japan) and incubated at 37°C in a humidified atmosphere supplemented with 5% CO2. Drug efficacy was assessed as changes in total cellular protein after 48 hours of drug treatment using a sulforhodamine B assay. Assays were done in duplicate and the GI50 was calculated as described previously13,16. The antitumor profile across the JFCR39 panel, or fingerprints were then compared to reference database containing ~2000 compounds by COMPARE algorithm16,17. Initially, we evaluated new DDP analogues for their antiproliferative activities across the panel of 39 human cancer cell lines, JFCR39[50],[51].

In the next experiment the test system is MKN-B. Description: cells. Set-up: species or system JFCR39 human cancer cell lines; JFCR39 panel growth inhibition, sulforhodamine B total protein after 48 h. The following applies: 48 h. The method, then: as §1
The subject of the next experiment is HCT-116. Briefly: cells. Also noted: species or system JFCR39 human cancer cell lines; JFCR39 panel growth inhibition, sulforhodamine B total protein after 48 h. The following applies: for GI50: Homo sapiens, HCT-116, 48 h. The method, then:
as §1

A further experiment concerns St-4. Description: cells. Also noted: species or system JFCR39 human cancer cell lines; JFCR39 panel growth inhibition, sulforhodamine B total protein after 48 h. The conditions noted are these: for GI50: Homo sapiens, St-4, 48 h. The method, then: as §1
The test system of another experiment is SF-295. Description: cells. Also noted: species or system JFCR39 human cancer cell lines; JFCR39 panel growth inhibition, sulforhodamine B total protein after 48 h. The following applies: Homo sapiens, SF-295, 48 h. The method, then: as §1
The subject of another experiment is OVCAR-8. Briefly: cells. The following applies: for GI50: Homo sapiens, OVCAR-8, 48 h. Set-up: species or system JFCR39 human cancer cell lines; JFCR39 panel growth inhibition, sulforhodamine B total protein after 48 h. The method, then: as §1
Another experiment deals with MKN-A. Briefly: cells. Set-up: species or system JFCR39 human cancer cell lines; JFCR39 panel growth inhibition, sulforhodamine B total protein after 48 h. The following applies: 48 h. The protocol: as §1
Another experiment relates to BSY-1. Briefly: cells. The conditions noted are these: for GI50: BSY-1, 48 h. Set-up: species or system JFCR39 human cancer cell lines; JFCR39 panel growth inhibition, sulforhodamine B total protein after 48 h. The protocol: as §1
Another experiment deals with PC-3. Briefly: cells. Also noted: species or system JFCR39 human cancer cell lines; JFCR39 panel growth inhibition, sulforhodamine B total protein after 48 h. The conditions noted are these: for GI50: Homo sapiens, PC-3, 48 h. The protocol:
as §1

For the next experiment, the system named is MCF-7. Description: cells. Also noted: species or system JFCR39 human cancer cell lines; JFCR39 panel growth inhibition, sulforhodamine B total protein after 48 h. The following applies: Homo sapiens, MCF7, 48 h. The protocol: as §1
Another experiment concerns OVCAR-3. Description: cells. Also noted: species or system JFCR39 human cancer cell lines; JFCR39 panel growth inhibition, sulforhodamine B total protein after 48 h. The conditions noted are these: for GI50: Homo sapiens, OVCAR-3, 48 h. The method, then: as §1
The next experiment concerns HCC2998. Description: cells. The following applies: for GI50: Homo sapiens, HCC 2998, 48 h. Set-up: species or system JFCR39 human cancer cell lines; JFCR39 panel growth inhibition, sulforhodamine B total protein after 48 h. The method, then: as §1
Another experiment deals with OVCAR-5. Briefly: cells. Set-up: species or system JFCR39 human cancer cell lines; JFCR39 panel growth inhibition, sulforhodamine B total protein after 48 h. The following applies: for GI50: Homo sapiens, OVCAR-5, 48 h. The method, then:
as §1

The test system of another experiment is DU-145. Description: cells. Set-up: species or system JFCR39 human cancer cell lines; JFCR39 panel growth inhibition, sulforhodamine B total protein after 48 h. The following applies: for GI50: Homo sapiens, DU-145, 48 h. The protocol: as §1
Another experiment has as its system ACHN. Description: cells. Set-up: species or system JFCR39 human cancer cell lines; JFCR39 panel growth inhibition, sulforhodamine B total protein after 48 h. The following applies: 48 h; for GI50: Homo sapiens, ACHN. The protocol: as §1
For a further experiment, the system named is HBC-4. Description: cells. Also noted: species or system JFCR39 human cancer cell lines; JFCR39 panel growth inhibition, sulforhodamine B total protein after 48 h. The conditions noted are these: for GI50: HBC4, 48 h. The protocol: as §1
Another experiment deals with HT-29. Description: cells. Set-up: species or system JFCR39 human cancer cell lines; JFCR39 panel growth inhibition, sulforhodamine B total protein after 48 h. The conditions noted are these: for GI50: Homo sapiens, HT-29, 48 h. The protocol:
as §1

The subject of the next experiment is NCI-H522. Briefly: cells. Also noted: species or system JFCR39 human cancer cell lines; JFCR39 panel growth inhibition, sulforhodamine B total protein after 48 h. The conditions noted are these: for GI50: Homo sapiens, NCI-H522, 48 h. The method, then:
as §1

The test system of the next experiment is MKN74. Briefly: cells. The following applies: for GI50: Homo sapiens, MKN-74, 48 h. Also noted: species or system JFCR39 human cancer cell lines; JFCR39 panel growth inhibition, sulforhodamine B total protein after 48 h. The protocol: as §1
For the next experiment, the system named is SNB-75. Briefly: cells. The conditions noted are these: for GI50: Homo sapiens, SNB-75, 48 h. Set-up: species or system JFCR39 human cancer cell lines; JFCR39 panel growth inhibition, sulforhodamine B total protein after 48 h. The method, then:
as §1

Experiment [1] deals with hepatitis B virus (HBV), measles virus (MV), Epstein-Barr virus (EBV), herpes simplex virus (HSV). Description: preliminary anti-viral screening (other viruses). Format: cell-based. The source says:
We examined the inhibitory activities of DDPs against various species of bacteria (both gram-negative and gram-positive bacteria), fungi and viruses. […] In contrast, preliminary screening of the DDPs for anti-viral agents with hepatitis B virus (HBV), measles virus (MV), Epstein-Barr virus (EBV), herpes simplex virus (HSV) and human immunodeficiency virus-1 (HIV-1) indicated their selective inhibition of HIV.

The mark [2] stands for this setting: 48 h, inhibitor, Log GI50, 48 h.

Molecules are shown by their SMILES.

With `C=C1CCC2C(C)(CC(=O)C=C(C)C)C(O)CCC2(C)C1Cc1c(O)c(C)c(C)oc1=O` (centres unmarked) [Compound 7], the GI50 with NCI-H23 was 13.2 µM; with MKN-B, 37.7 µM; in the experiment with HCT-116 it was 37.3 µM; in the experiment with St-4 it was 69.2 µM; with SF-295, 25.4 µM; in the experiment on OVCAR-8, 35.7 µM. Further, the GI50 in the experiment with MKN-A was 20.5 µM; in the experiment on BSY-1, 37 µM; in the experiment on PC-3, 83 µM; with MCF-7, 22.6 µM; with OVCAR-3 it was 20.6 µM.

As to `C=C1CCC2C(C)(CCC=C(C)C)C(O)CCC2(C)C1Cc1c(OC)oc(CO)c(C(=O)OC)c1=O` (centres unmarked) [Compound 13], the GI50 in the experiment on HCC2998 is 17.7 µM; with NCI-H23, 10.9 µM; in the experiment with MKN-B, 15.7 µM; with OVCAR-5, 17.3 µM; in the experiment on HCT-116, 18.4 µM; with DU-145, 15.2 µM. For the same compound, the GI50 in the experiment with ACHN is 12 µM; with St-4, 21.9 µM; in the experiment on SF-295 it was 11.9 µM; in the experiment with OVCAR-8, 17.1 µM; with BSY-1 it was 13.9 µM; with PC-3, 14.8 µM. The GI50 was 13.8 µM with MCF-7; 21.8 µM in the experiment with HBC-4; 17.9 µM in the experiment on HT-29; 10.8 µM in the experiment with OVCAR-3; 6.85 µM with NCI-H522; 14.8 µM in the experiment with MKN74. For the same compound, the GI50 in the experiment with SNB-75 was 18.8 µM.

For the compound `C=C1CCC2C(C)(CCC=C(C)C)C(O)CCC2(C)C1Cc1c(OC)oc(C)c(C(=O)OC)c1=O` (centres unmarked) [Compound 14], in [1], the “effect on other viruses” value is listed as “without affecting other viruses”. Further, the GI50 in the experiment on HCC2998 was 16.7 µM; in the experiment with NCI-H23, 2.61 µM; with MKN-B it was 2.01 µM; in the experiment on OVCAR-5, 18.6 µM; in the experiment with HCT-116 it was 2.83 µM; with DU-145 it was 11.8 µM. The GI50 with ACHN was 10.9 µM; with St-4 it was 14.6 µM; in the experiment with SF-295, 11.5 µM; with OVCAR-8, 8.57 µM; in the experiment on BSY-1, 10.2 µM; in the experiment with PC-3, 10.1 µM. For the same compound, the GI50 in the experiment on MCF-7 is 2.4 µM; with HBC-4, 16.1 µM; with HT-29 it was 13.2 µM; in the experiment with OVCAR-3, 10.3 µM; in the experiment on NCI-H522, 1.54 µM; in the experiment with MKN74 it was 10.8 µM. This compound also showed a GI50 with SNB-75 of 20.1 µM.

`C=C1CCC2C(C)(CCC=C(C)C)C(O)CCC2(C)C1Cc1c(OC)oc(CO)c(C)c1=O` (centres unmarked) [Compound 16]: the “Log GI50” value in the experiment with HCC2998 (setting [2]) is recorded as -4.871 M; in the experiment with NCI-H23 (setting [2]) it was -5.618 M; in the experiment with MKN-B (inhibitor, Log GI50, 48 h) it was -5.237 M; in the experiment with OVCAR-5 (setting [2]) it was -4.859 M; with HCT-116 (setting [2]), -5.292 M; with DU-145 (setting [2]) it was -4.962 M. In addition, the “Log GI50” value with ACHN (inhibitor, Log GI50, 48 h) was -5.541 M; with St-4 (setting [2]), -4.853 M; in the experiment with OVCAR-8 (setting [2]), -5.076 M; in the experiment on MKN-A (inhibitor, Log GI50, 48 h), -5.445 M; in the experiment on BSY-1 (setting [2]), -4.961 M; with PC-3 (setting [2]), -5.211 M. The “Log GI50” value was -4.804 M with HBC-4 (setting [2]); -4.904 M in the experiment on HT-29 (setting [2]); -5.447 M with OVCAR-3 (setting [2]); -5.659 M with NCI-H522 (setting [2]); -4.995 M in the experiment with MKN74 (setting [2]); -4.827 M in the experiment on SNB-75 (setting [2]). Besides, the GI50 with SF-295 was 2.8 µM; in the experiment on MCF-7, 4.46 µM.

With `C=C1CCC2C(C)(CC(=O)C=C(C)C)C(O)CCC2(C)C1Cc1c(OC)oc(CO)c(C)c1=O` (centres unmarked) [Compound 19], the GI50 was 11.9 µM with NCI-H23; 15.2 µM with MKN-B; 22.8 µM with HCT-116; 42.9 µM in the experiment on DU-145; 14.8 µM in the experiment with ACHN; 75.3 µM in the experiment with St-4. Further, the GI50 is 17.2 µM with SF-295; 40.8 µM in the experiment with OVCAR-8; 9.57 µM in the experiment with MKN-A; 33.3 µM with BSY-1; 24.1 µM in the experiment on PC-3; 25.4 µM with MCF-7. The GI50 is 46 µM with HT-29; 18.4 µM in the experiment with OVCAR-3; 12.4 µM with NCI-H522; 31 µM in the experiment on MKN74; 53.8 µM in the experiment on SNB-75.

Take `C=C1CC[C@@H]2[C@](C)(CC[C@H]3O[C@H](C=C(C)C)C[C@@]23C)[C@@H]1Cc1c(OC)oc(CO)c(C(=O)OC)c1=O` [Compound 21]: the GI50 in the experiment with HCC2998 is 18.2 µM; in the experiment on NCI-H23, 11.1 µM; in the experiment on MKN-B, 16.8 µM; in the experiment with OVCAR-5 it was 16.6 µM; in the experiment on HCT-116, 15 µM; in the experiment on DU-145, 15.7 µM. The GI50 in the experiment on ACHN is 12.2 µM; in the experiment with St-4 it was 20 µM; with SF-295 it was 12.1 µM; with OVCAR-8, 16.7 µM; in the experiment on MKN-A, 14.3 µM; in the experiment on BSY-1, 14.9 µM. The GI50 with PC-3 is 14.7 µM; in the experiment on MCF-7 it was 14.2 µM; with HBC-4, 16.8 µM; in the experiment with HT-29, 17.4 µM; with OVCAR-3, 12 µM; in the experiment on NCI-H522 it was 8.73 µM. Also, the GI50 with MKN74 was 19.8 µM; in the experiment with SNB-75 it was 17.8 µM.
